Data reported in patent EP0499337A1, “Use of tetra:hydro-thieno-pyrido-indole derivatives for the treatment of skin disorders” (YAMANOUCHI EUROPE B.V., priority 1991, dated 1992).
Read-outs that look alike come from different tables or passages of the source.

Assays:
PMHL = assay: Nonspecific cytotoxicity, trypane blue exclusion test; format: cell-based, human
Experimental: Nonspecific cytotoxicity of the test compounds on PMHL was assessed by […] blue exclusion test.

[1] = test system: human polymorphonuclear leukocytes (PMNL); assay: ROS generation from PMNL, lucigenin-amplified chemiluminescence; format: cell-based; conditions: Homo sapiens, PMNL, IC₅₀-values
Experimental: Human PMNL were isolated from fresh blood (anticoagulated with sodium citrate) by erythrocyte sedimentation with 1% dextran (Pharmacia, Uppsala, Sweden) centrifugation of the resulting supernatant, followed by hypoosmotic lysis to remove red blood cells. Washed cells were adjusted to 2 x 10⁶ cells/ml in PBS containing fetal calf serum (2%; v/v). Test compounds dissolved in DMSO were diluted with the assay buffer to a final DMSO concentration of 0.5% (v/v).
Then the test compounds (100 µl) were added with subsequent recording for another 16 min period. […] Results were expressed as percent of inhibition or stimulation of the controls (mean of two integrals) in a single experiment.

HaCaT cells [2] = assay: Cytotoxicity, LDH release into the culture medium; conditions: 48 h after onset of drug exposure
Experimental: HaCaT cells were grown as described.
Cytotoxicity was assessed by measurements of the content of intracellular lactate dehydrogenase (LDH) activity released into the culture medium during 48 h after onset of drug exposure. Possible drug induced detachment of the HaCaT cells from the plate was assessed by collection of the medium from the wells and centrifugation (80 x g, 10 min.) The resulting pellet was suspended in 10 µl medium and cells were counted in a haemocytometer.

[3] = test system: TPA-induced ear edema in mice; assay: Intraperitoneal administration, TPA-induced ear edema in mice; format: in vivo; conditions: intraperitoneally, 30, 10 or 3.3 mg/kg
Experimental: Mice were injected intraperitoneally with 30, 10 or 3.3 mg/kg body weight of the test substances, sphingosine in carboxymethylcellulose (0.5%) and tiflucarbine in physiologic Saline, 10 ml/kg body weight. After 60 minutes the mire were challenged on the left ear with a 0.01 wt% solution of 12-O-tetradecanoylphorbol-13-acetate (TPA) in a 80/20 mixture of acetone/water. At 0, 3, 6 and 24 h after challenge, ear thickness was determined.

HaCaT cells [4] = assay: Keratinocyte morphology, phase contrast microscopy; format: cell-based, human; conditions: 30 nM, monitored during 72 hours
Experimental: HaCaT cells were cultured under standard conditions. 24 h after plating (2.5 x 10⁶ cells) the medium was replaced by medium containing the test compounds. During 72 hours cell morphology was frequently monitored using a phase contrast photomicroscope (Olympus IMT-2, Tokyo, Japan).

[5] = test system: Normal human keratinocytes; assay: Cornified envelope formation (keratinocyte differentiation); format: cell-based; conditions: 4 h plus 48 h exposure, increasing concentrations
Experimental: Normal human keratinocytes were grown to confluence at low calcium concentration in the presence of 5% FCS, 1 µM isoproterenol and 10 ng EGF per ml. They were first exposed for 4 h to increasing concentrations of test compounds and subsequently reincubated for 48 h in medium containing normal calcium concentration and the same additives, test compounds and [³H]-leucine (1 µCi/ml). Thereafter, both spontaneous and ionophore-induced cornified envelope (CE) formation was determined [King et al. (1986) Exp. Cell. Res., 167: 252].

[6] = test system: PKC from the central nervous system; assay: Phosphorylation of synaptosomal plasma membranes: B-50 phosphorylation; format: biochemical; conditions: for phosphorylation of B-50 (% of control): without addition of CaM
Experimental: Subcellular fractionation and phosphorylation assay were performed according to Kristjansson et al., (1982). […] After a preincubation at 30°C for 5 min, the phosphorylation reaction was started by adding the ATP. The reaction was stopped after 15 sec. All compounds to be tested were present at the start of the preincubation. […]

rat brain synaptosomes = assay: Noradrenaline release from permeated synaptosomes; format: cell-based; conditions: 100 µM
Experimental: Highly purified synaptosomes were prepared according to Dunkley and Robinson (1987). The synaptosomes were diluted with 3 ml buffer A (123 mM NaCl, 5 mM KCl, 2 mM CaCl₂, […], 1.15 mM NaH₂PO₄, 5.6 mM glucose, 20 mM PIPES pH 6.8, gassed with O₂:CO₂, 95:5) and incubated for 15 min at 37°C. Then 2.5 µCi noradrenalin (NA) was added, incubation was continued for 15 min and the synaptosomes were centrifuged for 20 min at 600 x g. The resulting pellet was washed twice in buffer A without CaCl₂ and resuspended (1 mg protein/ml).
For measurement of NA release, prelabeled synaptosomes were incubated at 37°C in buffer A containing Na₂ATP and EGTA-buffered Ca²⁺ in concentrations as indicated (final volume 120 µl). The release reaction was started by adding synaptosomes (20 µg protein) to the reaction mixture and terminated after 5 min by 30 sec centrifugation at 10,000 x g. The supernatant (90 µl) was collected and counted in a Packard Model 2,000 CA liquid scintillation counter with Picofluor as a scintillation cocktail. NA release was expressed as % of total [³H]-NA incorporated. Total NA incorporation was determined by measuring [³H]-incorporation in 20 µg prelabeled washed synaptosomes.

50 kDa protein = assay: Phosphorylation of synaptosomal plasma membranes: CaM-dependent phosphorylation of the 50 kDa protein; format: biochemical; conditions: in the presence of added CaM
Experimental: Subcellular fractionation and phosphorylation assay were performed according to Kristjansson et al., (1982). […] After a preincubation at 30°C for 5 min, the phosphorylation reaction was started by adding the ATP. The reaction was stopped after 15 sec. All compounds to be tested were present at the start of the preincubation. […] Phosphorylation of B-50 and the 50 kDa protein, which was only phosphorylated after addition of CaM, was measured in the presence of exogenous CaM (3 units/assay) and quantified.

[7] = 16 min, compound added at peak, 16 min after opsonized zymosan, read-out: Peak CL
[8] = 30 min preincubation, unstimulated, read-out: Spontaneous CL
[9] = stimulation with opsonized zymosan after preincubation, read-out: Induced CL

| Molecule | Trypane blue (PMHL) | IC50 [1, 7] | IC50 [1, 8] | IC50 [1, 9] | LDH release (HaCaT cells [2]) | further results |
| --- | --- | --- | --- | --- | --- | --- |
| CN(C)CCCN1c2ccccc2Sc2ccc(Cl)cc21 [Chlorpromazine] | 30 µM | 21.8 µM | 4.9 µM | 7.6 µM | 30 µM |  |
| CC(CN1c2ccccc2Sc2ccccc21)N(C)C (stereo not drawn) [Promethazine] | 100 µM | 62.3 µM | 23.6 µM | 31.4 µM | 100 µM |  |
| CCCCCCCCCCCCC/C=C/[C@@H](O)[C@@H](N)CO [Sphingosine] |  |  |  |  |  | ear edema (ear thickness), compared with tiflucarbine [3]: more potent |
| CN[C@@H]1C[C@H]2O[C@@](C)([C@@H]1OC)n1c3ccccc3c3c4c(c5c6ccccc6n2c5c31)C(=O)NC4 [Staurosporine] | 3 µM |  |  |  | 10 µM | effect on morphology (HaCaT cells [4]): effects on morphology; spontaneous CE formation [5]: marked effect |
| CSc1ccc2c(c1)N(CCC1CCCCN1C)c1ccccc1S2 (stereo not drawn) [Thioridazine] |  | 10.6 µM | 2.4 µM | 6.4 µM |  |  |
| CN1CCN(CCCN2c3ccccc3Sc3ccc(C(F)(F)F)cc32)CC1 [Trifluoroperazine] | 100 µM |  |  |  | 30 µM |  |
| NCCCCCCNS(=O)(=O)c1cccc2c(Cl)cccc12 [W-7, N-(6-aminohexyl)-5-chloro-1-naphthalene sulfonamide] | 15 µM | 10 µM | 6.3 µM | 6.3 µM | 100 µM |  |
| Polymyxin B |  |  |  |  |  | B-50 phosphorylation ([6]; in the presence of exogenous CaM (3 units/assay)): dose-dependently inhibited; phosphorylation of B-50 (% of control) ([6]; concentration 0.1 µM): 95 ± 8 % of control; phosphorylation of B-50 (% of control) ([6]; concentration 1 µM): 103 ± 9 % of control; phosphorylation of B-50 (% of control) ([6]; concentration 10 µM): 82 ± 11 % of control; phosphorylation of B-50 (% of control) ([6]; concentration 100 µM): 18 ± 8 % of control; noradrenaline release (rat brain synaptosomes; high (10 µM) Ca²⁺): 19.4 ± 2.38 % of total [³H]-noradrenaline; noradrenaline release (rat brain synaptosomes; low (10 nM) Ca²⁺): 16.5 ± 1.03 % of total [³H]-noradrenaline; phosphorylation of the 50 kDa protein (50 kDa protein): dose-dependently inhibited |
